US20080311126A1, “Antisense Oligonucleotides Directed to Ribonucleotide Reducatase R2 and Uses Thereof in Combination Therapies for the Treatment of Cancer” (Genesense Technologies, Inc, priority 2004, published 2008)
Oligonucleotides are written 5' to 3', each unit as a sugar letter and its base; * is a phosphorothioate linkage, no mark a phosphodiester; rarer units and linkages stand in square brackets, end groups in braces. Plain capitals give the bases only. d = 2'-deoxy (DNA)

Legend:
Type in all cases: cell-based, human
Hela S3 cells = test: Relative colony forming efficiency, lipofectin +/- oligonucleotide 4 hours; details: Hela S3 cervix carcinoma cells; averages of 2-8 determinations
Protocol: Colony forming efficiency was determined using standard protocols. Briefly, the cells were cultured for 24 hours at 37° C. in growth medium with 10% fetal bovine serum. The cells were washed in 5 ml phosphate buffered saline, pH 7.2, once prior to lipofectin +/−oligonucleotide treatment.
The test oligonucleotides were added to cell cultures in the presence of 2.5 μg of DOTMA/DOPE (Lipofectin; Life Technologies, Inc.) for four hours. The oligonucleotide was tested at 0.2 μM unless otherwise indicated. Controls were the cultures treated with lipofectin but without the oligonucleotide. After 4 hours the medium containing the oligonucleotide was removed and washed with 5 ml of growth medium. The cells were then cultured in growth medium containing 10% fetal bovine serum for seven to ten days. Surviving cells were visualized by methylene blue staining, and colonies were scored. In some experiments cell aliquots were removed from the culture and viability was determined using the trypan blue exclusion test. Results were analyzed as percent of surviving cells compared to control cells.
AS-II-336-20 was tested for the ability to inhibit the proliferation of human tumour cells (Hela). Hela S3 cells (American Type Culture Collection, Rockville, Md., ATCC), and a Hela cell line (Hela 1 mM) previously selected for resistance to the antitumour agent, hydroxyurea, were tested (see results in Table 11). Two experiments were undertaken with Hela S3 cells. […] The same experiment was repeated with the Hela 1 mM cell line and with varying concentrations of the antisense construct AS-II-336-20 (see results in Table 11) with similar results, […] was an effective concentration for inhibiting colony formation.
To test the antisense effects of many of these sequences as phosphorthioate deoxyribonucleotides, they were examined in relative colony forming experiments conducted as described in Example 16 with a series of human tumour cell lines. The results (shown as % inhibition of colony forming ability) obtained with cancer cells derived from the bladder, breast, lung, colon, pancreas, prostate, liver and cervix, are shown in Table 13. The specific cell lines employed are as follows:
T24=bladder cell carcinoma HCT116=colon cell carcinoma A549=lung cell carcinoma MDA-MB-231=breast cell adenocarcinoma […]=pancreatic cell carcinoma PC-3=prostrate cell adenocarcinoma HepG2=hepatocellular carcinoma HeLaS3=cells isolated from a carcinoma of the cervix T-47D=breast ductal carcinoma H596=lung adenosquamous carcinoma cells Colo320=colon cell adenocarcinoma

[1] = tested on: PC-3 prostrate cell adenocarcinoma; test: Relative colony forming efficiency (Example 17, Table 13); details: averages of 2-8 determinations
How it was run: (§1)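 0.2 μM oligo (default) + 2.5 μg Lipofectin, 4 h exposure; methylene blue stain, colonies counted; vs lipofectin-alone control, reported as % inhibition.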

[2] = tested on: HepG2 hepatocellular carcinoma; test: as above; details: averages of 2-8 determinations
How it was run: as §1

[3] = tested on: MDA-MB-231 breast cell adenocarcinoma; test: as above; details: averages of 2-8 determinations
How it was run: as §1

[4] = tested on: T24 bladder cell carcinoma; test: as above; details: averages of 2-8 determinations
How it was run: as §1

A549 lung cell carcinoma = test: as above; details: averages of 2-8 determinations
How it was run: as §1

[5] = tested on: HCT116 colon cell carcinoma; test: as above; details: averages of 2-8 determinations
How it was run: as §1

[6] = tested on: MDA PaCa-2 pancreatic cell carcinoma; test: as above; details: MIA PaCa-2 pancreatic cell carcinoma; averages of 2-8 determinations
How it was run: as §1

| Sequence | Reduced relative colony forming efficiency, Hela S3 (% inhibition of colony forming ability) (Hela S3 cells) [%] | Reduced relative colony forming efficiency, PC-3 (% inhibition of colony forming ability) [1] [%] | Reduced relative colony forming efficiency, HepG2 (% inhibition of colony forming ability) [2] [%] | Reduced relative colony forming efficiency, MDA-MB-231 (% inhibition of colony forming ability) [3] [%] | Reduced relative colony forming efficiency, T24 (% inhibition of colony forming ability) [4] [%] | Reduced relative colony forming efficiency, A549 (% inhibition of colony forming ability) (A549 lung cell carcinoma) [%] | Reduced relative colony forming efficiency, HCT116 (% inhibition of colony forming ability) [5] [%] | Reduced relative colony forming efficiency, MIA PaCa-2 (% inhibition of colony forming ability) [6] [%] |
| --- | --- | --- | --- | --- | --- | --- | --- | --- |
| AACTTCTTGGCTAAATCGCT (antisense dA*dA*dC*dT*dT*dC*dT*dT*dG*dG*dC*dT*dA*dA*dA*dT*dC*dG*dC*dT) [AS-II-634-20] | 48.94 | 77.86 | 95.78 | 92.44 | 83.52 | 57.76 |  |  |
| CCTCCTCGGCGGTCCAAAAG (antisense dC*dC*dT*dC*dC*dT*dC*dG*dG*dC*dG*dG*dT*dC*dC*dA*dA*dA*dA*dG) [AS-II-494-20] | 43.62 | 30.6 | 93.37 | 54.78 | 54.23 | 33.85 | 50.28 | 25.31 |
| CTGCTTTAGTTTTCGGCTCC (antisense dC*dT*dG*dC*dT*dT*dT*dA*dG*dT*dT*dT*dT*dC*dG*dG*dC*dT*dC*dC) [AS-II-362-20] | 45.69 | 75.78 | 95.78 | 85.83 | 89.63 | 61.81 | 62.81 | 34.2 |
| TCAGAGGGGGCAGAGAATCC (antisense dT*dC*dA*dG*dA*dG*dG*dG*dG*dG*dC*dA*dG*dA*dG*dA*dA*dT*dC*dC) [AS-II-2044-20] | 24.55 | 74.48 | 62.35 | 19.11 | 53.63 | 25.55 | 49.34 | 24.48 |
| GGAAGATGACAAAGCGGCGG (antisense dG*dG*dA*dA*dG*dA*dT*dG*dA*dC*dA*dA*dA*dG*dC*dG*dG*dC*dG*dG) [AS-II-425-20] | 63.09 | 75.65 | 97.89 | 89.75 | 90.37 | 57.38 |  | 65.2 |
| TCCTTTATCCCACAACACTC (antisense dT*dC*dC*dT*dT*dT*dA*dT*dC*dC*dC*dA*dC*dA*dA*dC*dA*dC*dT*dC) [AS-II-2067-20] | 24.88 |  | 90.36 | 49.68 | 49.6 | 64.71 | 47.16 | 41.08 |
| GGTTTTCTCTCAGCAGCGGC (antisense dG*dG*dT*dT*dT*dT*dC*dT*dC*dT*dC*dA*dG*dC*dA*dG*dC*dG*dG*dC) [AS-II-404-20] | 58.37 | 77.08 | 84.79 | 85.83 | 84.26 | 52.17 |  | 17.84 |
| TGTAAACCCTCATCTCTGCT (antisense dT*dG*dT*dA*dA*dA*dC*dC*dC*dT*dC*dA*dT*dC*dT*dC*dT*dG*dC*dT) [AS-II-981-20] | 69.43 | 85.16 | 95.03 | 91.48 | 86.3 | 74.25 | 66.84 |  |
| GGCATCAGTCCTCGTTTCTT (antisense dG*dG*dC*dA*dT*dC*dA*dG*dT*dC*dC*dT*dC*dG*dT*dT*dT*dC*dT*dT) [AS-II-933-20] | 26.86 | 36.91 |  | 64.39 | 64.84 | 53.52 | 67.24 | 35.68 |
| TATCTCTCCTCGGGTTTCAG (antisense dT*dA*dT*dC*dT*dC*dT*dC*dC*dT*dC*dG*dG*dG*dT*dT*dT*dC*dA*dG) [AS-II-549-20] | 27.8 |  | 84.04 | 40.13 | 45.46 | 30.57 | 47.83 | 17.01 |
| TCGCTCCACCAAGTTTTCAT (antisense dT*dC*dG*dC*dT*dC*dC*dA*dC*dC*dA*dA*dG*dT*dT*dT*dT*dC*dA*dT) [AS-II-619-20] | 31.22 | 88.01 | 92.02 | 91.08 | 86.3 | 65.67 |  | 39.83 |
| ATAAAGTCAAATGGGTTCTC (antisense dA*dT*dA*dA*dA*dG*dT*dC*dA*dA*dA*dT*dG*dG*dG*dT*dT*dC*dT*dC) [AS-II-1224-20] | 14.8 | 80.66 | 76.05 |  | 38.31 | 55.06 | 41.78 | 17.22 |
